Reference: patent US20170081357A1, “[…] ACTIVE 17-NITROGEN SUBSTITUTED ESTRATREINTHIAZOLE DERIVATIVES AS INHIBITORS OF 17.BETA-HYDROXYSTEROID DEHYDROGENASE” (FORENDO PHARMA LTD, priority 2013, published 2017)

Columns and labels:
[1] = target: T1, recombinant human 17β-HSD2 (Homo sapiens, UniProt P37059); assay: Inhibition of recombinant human 17β-HSD2 (conversion of 3H-estradiol to estrone, HPLC); type: biochemical; details: inhibitor 1 μM; 50 nM estradiol, 1 mM NADH, 30 min at RT
T1 construct: made in house; host or cells: Sd9 (Sf9) insect cells, baculovirus (Bac to Bac Expression System); fractionated cell extract
T1 sequence (P37059 1-387): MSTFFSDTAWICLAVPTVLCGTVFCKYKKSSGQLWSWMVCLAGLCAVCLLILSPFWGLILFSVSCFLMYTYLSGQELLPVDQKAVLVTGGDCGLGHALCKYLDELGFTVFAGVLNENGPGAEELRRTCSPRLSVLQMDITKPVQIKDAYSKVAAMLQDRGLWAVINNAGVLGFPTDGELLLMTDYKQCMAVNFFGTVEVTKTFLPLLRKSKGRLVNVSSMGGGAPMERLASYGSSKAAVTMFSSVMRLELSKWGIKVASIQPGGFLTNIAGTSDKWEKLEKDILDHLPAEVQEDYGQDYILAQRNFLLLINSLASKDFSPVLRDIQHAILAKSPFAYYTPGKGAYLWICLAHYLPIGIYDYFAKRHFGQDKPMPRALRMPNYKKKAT
Summary of the method: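 Baculovirus/Sf9-expressed enzyme in detergent-solubilised membrane extract, 4 μg/ml, incubated 30 min at RT in 20 mM KH2PO4 pH 8.5 with 50 nM estradiol (³H-tracer) and 1 mM NADH; inhibitor at 1 μM or 0.1 μM, 1% DMSO final. TCA-stopped; estrone/estradiol separated by reverse-phase HPLC with flow scintillation; % inhibition = 100 − % conversion.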

[2] = Metabolic stability assay, human liver microsome and homogenate incubations; type: in vitro ADME; details: human liver homogenate or microsomes, LC/PDA/TOF-MS
Procedure: The in vitro metabolic stability of the compounds of the invention was determined for exemplified compounds using human liver microsome and homogenate incubations. The incubation time points used with or without appropriate cofactors were 0 min and 60 min. Samples were collected at both time points and substrates were detected using LC/PDA/TOF-MS. In vitro metabolic stability (% remaining after 60 min in human liver homogenate or microsomes) of the compounds were calculated and the results are summarized in Table 3.

[3] = target: T2, recombinant human 17β-HSD1 (Homo sapiens, UniProt P14061); assay: Inhibition of recombinant human 17β-HSD1 (conversion of 3H-estrone to estradiol, HPLC); type: biochemical; details: inhibitor 1 μM; 30 nM estrone, 1 mM NADPH, 30 min at RT; read-out: 17β-HDS1 Inhibition % at 1 μM
T2 construct: made in house; host or cells: Sd9 (Sf9) insect cells, baculovirus (Bac to Bac Expression System); microsomal fraction
T2 sequence (P14061 1-328): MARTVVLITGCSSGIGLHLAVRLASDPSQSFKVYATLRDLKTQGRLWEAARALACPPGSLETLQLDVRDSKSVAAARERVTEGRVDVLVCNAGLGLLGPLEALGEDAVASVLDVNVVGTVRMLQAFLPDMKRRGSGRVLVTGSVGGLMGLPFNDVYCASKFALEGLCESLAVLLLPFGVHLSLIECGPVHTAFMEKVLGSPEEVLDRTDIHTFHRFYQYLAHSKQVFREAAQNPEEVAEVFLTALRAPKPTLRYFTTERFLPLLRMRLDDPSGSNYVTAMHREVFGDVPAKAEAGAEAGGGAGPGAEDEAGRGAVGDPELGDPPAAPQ
Summary of the method: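 Microsomal recombinant human 17β-HSD1 (1 μg/ml) from insect cells incubated 30 min at RT in 20 mM KH2PO4 pH 7.4 with 30 nM 3H-estrone, 1 mM NADPH and inhibitor at 1 μM or 0.1 μM (1% DMSO). Estrone/estradiol separated by reverse-phase HPLC with radioactivity flow detection; % inhibition = 100 − % conversion.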

Cc1cnc(NC(=O)CC[C@@H]2C(=C\O)/C(=N\O)[C@@]3(C)CCC4c5cc(Br)c(O)c(Br)c5CCC4C23)s1 (stereo partly drawn) [Compound 70, 3-{(13S,15S)-2,4-Dibromo-3-hydroxy-17-[(Z)-hydroxyimino]-16-[1-hydroxy-meth-(E)-ylidene]-13-methyl-7,8,9,11,12,13,14,15,16,17-decahydro-6H-cyclopenta[a]phenanthren-15-yl}-N-(5-methylthiazol-2-yl)propanamide]
inhibition at 1 µM [1]: 8% | In vitro metabolic stability, % remaining after 60 min [2]: 97% | inhibition at 1 µM [3]: 94%
